Test results as given in patent US20240174684A1, “INHIBITORS OF cGAS ACTIVITY AS THERAPEUTIC AGENTS” (BELLBROOK LABS, LLC, priority 2021, published 2024).
≈ marks a conversion by molar mass, not a printed value. Where two headings read alike, the source gives them in different places.

Columns and labels:
[1] = Metabolic stability in human hepatocytes; type: in vitro ADME; details: read-out: Human MS Stability t1/2
Protocol: (§1) ADME studies: Compound A and the compounds of the disclosure were tested for aqueous solubility (KSOL), metabolic stability (human and mouse […]) and permeability (Caco-2 and/or MDR1-MDCK cells) to provide an initial indication of oral bioavailability.
(§2) The favorable physicochemical properties are reflected in promising results in in vitro ADME tests. […] Metabolic stability, which was routinely measured with mouse and human hepatocytes, is outstanding, with t, greater than 2 hours for all of the compounds of the disclosure in which it has been measured. Cell permeability was measured using MDCK cells expressing human MDR1 (P-glycoprotein) to assess passive permeability as well as active transport out of the cell. […] Numerous compounds in Table 1 meet these permeability criteria, which is consistent with their design for TPSA <140 Å^2 and increased lipophilicity.
(§3) The MDCK-MDR1 permeability A ->B is shown in Table 2 below, where A represents 5-10 cm/s×10^−6; B represents 1-5 cm/s×10^−6; and C represents <1 cm/ss×10^−6. The metabolic stability half time, in both mouse and human hepatocytes, is also shown in Table 2 below, where A′ represents 100-200 minutes; B′ represents 200-300 minutes; and C′ represents >300 minutes.

[2] = Kinetic aqueous solubility (KSOL) in PBS, pH 7.4; type: physicochemical; details: aqueous buffer, kinetic from dmso stock
Protocol: as §1, §2

[3] = Cytotoxicity, CellTiter Glo (ATP levels) and Presto Blue (reducing equivalents); type: cell-based; details: CellTiter Glo, Presto Blue, dose response
Protocol: (§4) The reporter gene assays were used to assess off-target activity with IRF30Luc (RIG-1) or NFKB (TLR4); CellTiter Glo (ATP levels) and Presto Blue (reducing equivalents) were used to assess cytotoxicity; all assays were performed in dose response mode. […] The inventors recently began using human PBMCs to assess cellular potency in a more physiologically relevant context.

[4] = Metabolic stability in mouse hepatocytes; type: in vitro ADME; details: read-out: Mouse MS Stability t1/2
Protocol: as §1, §2, §3

[5] = Pharmacokinetics in C57BL/6 female mice, IV and PO; type: in vivo; details: plasma; for AUC: read-out: AUC0-tidc
Protocol: The pharmacokinetic characteristics of Compound 5 (BBL-100455) were estimated in C57BL/6 female mice following intravenous (IV) bolus and oral (PO) administration.
In short, the compound of the disclosure at 0.6 mg/mL in PBS containing 5% MSO and 25% PEG-400 was administered by IV injection (3 mg/kg). For PO (30 mg/kg), the compound of the disclosure at 3 mg/mL in PBS containing 10% MSO and 50% PEG-400 was orally administered. At the given time points (0.083 h, 0.167 h, 0.25 h, 0.50 h 1 h, 2 h, 4 h, 7 h, 16 h and 24 h), blood samples were collected using heparinized calibrated pipettes. Samples were centrifuged at 15000 rpm for 10 min. Subsequently, blood plasma was collected from the upper layer. The plasma was frozen at −80° C. for later analysis. At 2 h. 7 h and 24 h, brain samples were collected and immediately stored at […] for later analysis.
The analytical curve was constructed using ten non-zero standards with Compound 5 (BBL-100455) concentration ranging from 1 to 2500 ng/ml in the blank plasma and brain tissue. A blank sample (matrix sample processed without internal standard) was used to exclude contamination. The linear regression analysis of BBL- 100455 was performed by plotting the peak area ratio (y) against the BBL-100455 concentrations (x) in ng/ml.
The individual and average compound 5 concentration-time data for IV and PO dosed groups are presented in FIG. 4 for plasma concentration. All PK parameters were estimated using non-compartmental analyses with Phoenix/WINONLIN.

TLR4 pathway = experiment: Reporter gene assay NFKB (TLR4); type: cell-based; details: at concentrations above 25 μM
Protocol: CETSA was also used to confirm that the compounds are binding to cGAS in cells; THP-1 cells are used for this analysis. Compounds were tested in dose response mode by incubating with cells for 1.5 hours at 37° C., followed by pelleting and re-suspending in PBS, heating to 51.5° C. for 3 min and cooling to room temp. Cells were then lysed, debris, including denatured cGAS, was pelleted and the supernatant was analyzed for soluble cGAS by Western Blot using anti-cGAS primary Ab (Cell Signaling). Band intensity was analyzed using Image J software. Stimulation with cGAMP directly activates STING, circumventing cGAS; this was used to determine if compounds had effects on downstream components of cGAS/STING signaling. The IFN-6 ELISA was used as the primary measure of cellular potency and selectivity (Table 3) and used the reporter gene assays for assessing off-target activity with other pattern recognition receptors.
as §4

mouse cGAS = mouse cGAS (Mus musculus, UniProt Q8C6L5); experiment: Transcreener cGAS enzymatic assay with mouse cGAS; type: biochemical; details: standard conditions, read-out: IC50 with mcGAS
Protocol: Structural, biochemical and biophysical analysis and selectivity profiling: Potency and MOA studies, including Mn^2+ sensitivity, were performed using the Transcreener cGAS enzymatic assay, which is manufactured at BellBrook Labs (Fitchburg, Wisconsin, USA). This homogenous cGAS enzymatic assay was developed with fluorescence polarization (FP) and time-resolved Forster resonance energy transfer (TR-FRET) readouts, as described in International Patent Publication WO 2020/142729, incorporated by reference herein in its entirety. Plates are read on a PHERAstar FSX multimode reader (BMG). The compounds of the disclosure were tested for inhibition of cGAS ([…]) using this cGAS enzymatic assay under standard conditions (100 μM ATP and GTP, 62.5 nM bp ISD, 60 minute reactions), high ATP and GTP (1 mM) to mimic physiological conditions, in the presence of 200 μM MnCl2, and with mouse cGAS under standard conditions.
Potency with mcGAS is important for vivo efficacy studies and represents a challenge for lead development because mcGAS shares only 57% amino acid identity with human enzyme and there are significant functional differences.

[6] = mouse, IV 3 mg/kg, C57BL/6 female mice
[7] = mouse, PO 30 mg/kg, C57BL/6 female mice

Chain of mouse cGAS (Q8C6L5 whole entry): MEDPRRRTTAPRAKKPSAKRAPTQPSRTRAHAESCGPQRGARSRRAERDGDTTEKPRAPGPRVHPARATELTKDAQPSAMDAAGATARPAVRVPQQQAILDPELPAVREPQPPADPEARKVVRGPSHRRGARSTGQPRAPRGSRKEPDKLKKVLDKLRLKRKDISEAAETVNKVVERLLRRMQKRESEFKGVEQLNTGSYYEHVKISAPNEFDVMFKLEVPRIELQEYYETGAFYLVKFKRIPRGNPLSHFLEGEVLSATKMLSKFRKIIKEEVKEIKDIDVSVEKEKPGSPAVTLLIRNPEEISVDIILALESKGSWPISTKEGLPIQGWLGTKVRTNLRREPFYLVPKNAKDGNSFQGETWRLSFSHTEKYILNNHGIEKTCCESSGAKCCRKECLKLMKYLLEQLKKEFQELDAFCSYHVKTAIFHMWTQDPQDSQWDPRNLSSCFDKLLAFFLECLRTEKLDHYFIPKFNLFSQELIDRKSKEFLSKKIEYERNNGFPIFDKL

**Q.** Which half-life [1] does the source give for `Cc1nc(N2C[C@@H](CC(=O)Nc3ccc(-c4ccccc4)cc3)C[C@H]2C(=O)O)c2oc3ccccc3c2n1` [Compound 5, (2S,4R)-4-(2-([1,1′-biphenyl]-4-ylamino)-2-oxoethyl)-1-(2-methylbenzofuro[3,2-d]pyrimidin-4-yl)pyrrolidine-2-carboxylic acid] here?
**A.** The half-life was 1.67 to 3.33 h.

**Q.** And the solubility kinetic [2]?
**A.** Its solubility kinetic is 8 µM (≈ 4.05 µg/mL).

**Q.** What about the Concentration showing cytotoxicity [3] of the same molecule?
**A.** The Concentration showing cytotoxicity was “above 25 μM”.

**Q.** And the half-life [4]?
**A.** The half-life was over 5 h.

**Q.** What about the Vss ([5]; IV 3 mg/kg, C57BL/6 female mice) of the same molecule?
**A.** Its Vss is 0.853 L/kg.

**Q.** What about the bioavailability ([5]; female, C57BL/6, mouse, PO 30 mg/kg vs IV 3 mg/kg, bioavailability) of the same molecule?
**A.** Its bioavailability is 29.3%.

**Q.** What about the AUC(0-inf) [5, 6] of the same molecule?
**A.** Its AUC(0-inf) is 4860 ng·h/mL.

**Q.** And the clearance [5, 6]?
**A.** The clearance was 10.3 mL/min/kg.

**Q.** What about the half-life [5, 6] of the same molecule?
**A.** Its half-life is 2.3 h.

**Q.** And the AUC [5, 6]?
**A.** Its AUC is 4630 ng·h/mL.

**Q.** And the AUC(0-inf) [5, 7]?
**A.** The AUC(0-inf) was 13600 ng·h/mL.

**Q.** And the CL/F [5, 7]?
**A.** The CL/F was 36.8 mL/min/kg.

**Q.** What about the Cmax [5, 7] of the same molecule?
**A.** The Cmax was 2870 ng/mL.

**Q.** What about the Tmax [5, 7] of the same molecule?
**A.** Its Tmax is 0.5 h.

**Q.** And the half-life [5, 7]?
**A.** Its half-life is 2.25 h.

**Q.** And the AUC [5, 7]?
**A.** Its AUC is 13600 ng·h/mL.

**Q.** What about the “Off-target activity with the TLR4 pathway” value (TLR4 pathway) of the same molecule?
**A.** The value was “some off-target activity”.

**Q.** And the IC50 (mouse cGAS)?
**A.** Its IC50 is 4.23 µM.
